For one assay, the system named is A1 or A2 receptors. The experiment in a line: comparison of activity across the A1 and A2 adenosine receptor systems (discussion). The settings on record: result in words. The format is biochemical. As for the experimental part:
Human platelet, rat pheochromocytoma (PC12) cell, rat fat cell and rat cerebral cortex membranes were prepared as described (4,5,6). Adenylate cyclase activity and binding of [^3H]PIA to cerebral cortex membranes were determined essentially as described (4,5,6).
KB values for the compounds were determined as described (4). […] EC50 and IC50 values for the agonists were obtained from the concentration-response curves by linear regression after logit-log transformation. KB values of the antagonists were calculated using the Schild equation KB = C/(CR-1), where C denotes the concentration of the competitor and CR the ratio of the EC50 and IC50 values in the presence and absence, respectively, of the competitor. IC50 of the compounds for inhibition of [^3H]PIA binding to cerebral cortex membranes were transformed into Ki values as described (6).

The next assay has as its target T1, A1 adenosine receptor (Cavia porcellus, UniProt P47745).
T1 construct: The left atria from male guinea pigs were isolated; from tissue; host or cells: isolated guinea pig left atrium
T1 sequence (P47745 1-326): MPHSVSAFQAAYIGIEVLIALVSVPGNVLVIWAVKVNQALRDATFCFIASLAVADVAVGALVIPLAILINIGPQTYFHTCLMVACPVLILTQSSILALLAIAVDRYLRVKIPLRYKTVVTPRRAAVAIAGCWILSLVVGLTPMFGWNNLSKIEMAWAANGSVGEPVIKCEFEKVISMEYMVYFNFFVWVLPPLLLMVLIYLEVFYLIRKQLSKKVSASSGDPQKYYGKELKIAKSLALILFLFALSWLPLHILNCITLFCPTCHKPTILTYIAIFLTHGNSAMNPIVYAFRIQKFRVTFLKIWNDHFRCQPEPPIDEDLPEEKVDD
The assay is described as follows: antagonism of adenosine agonists' reduction in force of contraction of guinea pig atrium. The assay is classed as cell-based. The settings on record: guinea pig atria, result in words. As for the experimental part:
The left atria from male guinea pigs were isolated, suspended between two punctate electrodes, and placed in a 20 ml organ bath that contained Krebs-Hensileit solution that was continuously gassed with 95% O2 + 5% CO2 and maintained at 31°C. The resting tension was one gram. Theatria were stimulated electrically at 1 hz, 1 ms duration pulses at supramaximal voltage. The force of contraction was recorded isometrically.
(§1) The ability of the compounds to antagonize the effects of agonists was analyzed using modified Schild plots.

The test system of the next assay is A2-adenosine receptors. The experiment in a line: antagonism of adenosine agonists' decrease in contractile tone of guinea pig taenia caecum. The assay is classed as cell-based. To be noted: result in words. How it is done:
The tissues were suspended in a 20 ml organ bath containing de Jalon's solution that was gassed with 95% O2 + 5% CO2 and maintained at 31°C. The resting tension was 1.5 g. The contractile response was measured isotonically.
as §1

Assay [1] has as its system heart rate and blood pressure. The assay is described as follows: in vivo heart rate and blood pressure in anesthetized rats after adenosine or NECA. To be noted: urethan-anesthetized rats, prior administration. The text has this:
Drug injections were made intravenously through a jugular cannula.

Data on two molecules can be found in patent EP0383759B1 (Discovery Therapeutics, Inc., priority 1987, dated 1988).

For `COc1cc(CCNc2ncnc3c2ncn3C)cc(OC)c1OC`, the “selectivity for A1 or A2 receptors” value in the assay on A1 or A2 receptors is “selectivity for A2 receptors”.
Regarding `Cn1cnc2c(N[C@H]3C[C@H]4CC[C@@H]3C4)ncnc21` (relative stereo) [Example 22, N^6-(endonorbornyl)-9-methyladenine], the “antagonism at adenosine receptors in the atria” value on A1 adenosine receptor is “competitive antagonists”; at A1 adenosine receptor (listed as Ex. 22), “the most potent antagonist”. In addition, the “antagonism of the effects of adenosine agonists in relaxing the taenia caecum” value in the assay on A2-adenosine receptors is “did not competitively antagonize”. The “NECA-induced decrease in blood pressure” value in assay [1] is on record as “minimally affecting”. The “effects of NECA on the heart” value in assay [1] was “attenuated”.
